Literature values in patent publication US20200360292A1, “OIL-SOLUBLE DRUG CONTAINING COMPOSITIONS AND METHODS OF USE THEREOF” (priority 2019, published 2020).

Conditions: inhalation

SMILES: CCCCCc1cc(O)c2c(c1)OC(C)(C)[C@@H]1CCC(C)=C[C@@H]21 [THC, Δ9-tetrahydrocannabinol]
- Time to maximum plasma concentration: within minutes
